In patent publication US10894784B2, “Heteroarylbenzimidazole compounds” (BAYER PHARMA AKTIENGESELLSCHAFT, priority 2015, dated 2021):

Biological target: TBK1 (Homo sapiens (Human), UniProt Q9UHD2)
Assay: TBK1 low ATP kinase assay (in vitro assay 1)
Format: biochemical
Conditions: in vitro assay 1, read-out: TBK1 low ATP kinase assay IC50

Sequence of TBK1 (Q9UHD2 whole entry): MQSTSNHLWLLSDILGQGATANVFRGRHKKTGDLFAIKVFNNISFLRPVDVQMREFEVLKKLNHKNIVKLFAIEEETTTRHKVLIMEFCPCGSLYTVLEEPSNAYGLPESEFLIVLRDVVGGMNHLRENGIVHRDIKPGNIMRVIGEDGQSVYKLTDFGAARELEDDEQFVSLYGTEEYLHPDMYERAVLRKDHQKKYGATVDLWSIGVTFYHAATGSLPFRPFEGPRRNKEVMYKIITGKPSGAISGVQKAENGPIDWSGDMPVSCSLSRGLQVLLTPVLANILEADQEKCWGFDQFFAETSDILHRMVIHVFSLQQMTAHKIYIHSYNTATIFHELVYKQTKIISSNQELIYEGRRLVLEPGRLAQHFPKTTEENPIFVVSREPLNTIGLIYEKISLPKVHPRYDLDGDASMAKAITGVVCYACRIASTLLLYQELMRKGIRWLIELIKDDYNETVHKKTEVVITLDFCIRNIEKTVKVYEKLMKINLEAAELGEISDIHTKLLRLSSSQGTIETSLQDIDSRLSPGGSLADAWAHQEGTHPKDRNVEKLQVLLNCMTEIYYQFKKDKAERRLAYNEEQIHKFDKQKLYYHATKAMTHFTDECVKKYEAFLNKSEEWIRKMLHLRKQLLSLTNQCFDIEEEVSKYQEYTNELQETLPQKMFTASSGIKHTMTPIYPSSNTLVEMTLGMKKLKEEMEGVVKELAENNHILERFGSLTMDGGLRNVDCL

Row | SMILES | IC50 [nM]
1 | Cc1cccc(-c2ccc3nc(Nc4cc(CN5CCN(C(=O)C6CC6)CC5)ccn4)[nH]c3c2)n1 [Example 12.02, cyclopropyl{4-[(2-{[6-(6-methylpyridin-2-yl)-1H-benzimidazol-2-yl]amino}pyridin-4-yl)methyl]piperazin-1-yl}methanone] | 924
2 | N#Cc1cnccc1-c1ccc2nc(Nc3cc(CN4CCN(C(=O)C5CC5)CC4)ccn3)[nH]c2c1 [Example 103.01, 4-{2-[(4-{[4-(cyclopropylcarbonyl)piperazin-1-yl]methyl}pyridin-2-yl)amino]-1H-benzimidazol-6-yl}pyridine-3-carbonitrile] | 360
3 | CC(C)Cc1noc(-c2ccc3nc(Nc4cc(CN5CCN(C(=O)CC(F)(F)F)CC5)ccn4)[nH]c3c2)n1 [Example 18.01, 3,3,3-trifluoro-1-(4-{[2-({6-[3-(2-methylpropyl)-1,2,4-oxadiazol-5-yl]-1H-benzimidazol-2-yl}amino)pyridin-4-yl]methyl}piperazin-1-yl)propan-1-one] | 72.4
4 | Cc1noc(-c2ccc3nc(Nc4cc(CN5CCN(C(=O)N6CCCC6)CC5)ccn4)[nH]c3c2)n1 [Example 101.31, {4-[(2-{[6-(3-methyl-1,2,4-oxadiazol-5-yl)-1H-benzimidazol-2-yl]amino}pyridin-4-yl)methyl]piperazin-1-yl}(pyrrolidin-1-yl)methanone] | 510
5 | Cc1noc(C)c1-c1cc(-c2ccc3nc(Nc4cc(CN5CCN(C(=O)OC(C)(C)C)CC5)ccn4)[nH]c3c2)ncn1 [Example 92.01, tert-butyl 4-{[2-({6-[6-(3,5-dimethyl-1,2-oxazol-4-yl)pyrimidin-4-yl]-1H-benzimidazol-2-yl}amino)pyridin-4-yl]methyl}piperazine-1-carboxylate] | 88
6 | Cc1noc(-c2ccc3nc(Nc4cc(CN5CCN(c6cnccn6)CC5)ccn4)[nH]c3c2)n1 [Example 101.13, 6-(3-methyl-1,2,4-oxadiazol-5-yl)-N-(4-{[4-(pyrazin-2-yl)piperazin-1-yl]methyl}pyridin-2-yl)-1H-benzimidazol-2-amine] | 360
7 | CCc1nccc(-c2ccc3nc(Nc4cc(CN5CCN(C(=O)OC(C)(C)C)CC5)ccn4)[nH]c3c2)n1 [Example 28.01, tert-butyl 4-[(2-{[6-(2-ethylpyrimidin-4-yl)-1H-benzimidazol-2-yl]amino}pyridin-4-yl)methyl]piperazine-1-carboxylate] | 111
8 | CC(C)(C)OC(=O)N1CCN(Cc2ccnc(Nc3nc4ccc(-c5ccnc(N6CCCC6)n5)cc4[nH]3)c2)CC1 [Example 177.01, tert-butyl 4-{[2-({6-[2-(pyrrolidin-1-yl)pyrimidin-4-yl]-1H-benzimidazol-2-yl}amino)pyridin-4-yl]methyl}piperazine-1-carboxylate] | 227
9 | CN(C)c1ncnc(-c2ccc3nc(Nc4cc(CN5CCN(C(=O)C6CC6)CC5)ccn4)[nH]c3c2)c1Cl [Example 179.03, (4-{[2-({6-[5-chloro-6-(dimethylamino)pyrimidin-4-yl]-1H-benzimidazol-2-yl}amino)pyridin-4-yl]methyl}piperazin-1-yl)(cyclopropyl)methanone] | 1260
10 | Cc1noc(-c2ccc3nc(Nc4cc(CN5C[C@@H](C)N(C(=O)OC(C)(C)C)C[C@@H]5C)ccn4)[nH]c3c2)n1 [Example 16.02.01, tert-butyl (2R,5S)-2,5-dimethyl-4-[(2-{[6-(3-methyl-1,2,4-oxadiazol-5-yl)-1H-benzimidazol-2-yl]amino}pyridin-4-yl)methyl]piperazine-1-carboxylate] | 2260
11 | Cc1noc(-c2ccc3nc(Nc4cc(CN5C[C@@H](C)N(C(=O)CC6CC6)C[C@@H]5C)ccn4)[nH]c3c2)n1 [Example 16.02.03, 2-cyclopropyl-1-{(2R,5S)-2,5-dimethyl-4-[(2-{[6-(3-methyl-1,2,4-oxadiazol-5-yl)-1H-benzimidazol-2-yl]amino}pyridin-4-yl)methyl]piperazin-1-yl}ethanone] | 227
12 | Cc1noc(-c2ccc3nc(Nc4cc(CN5CCN(C(=O)C6CCC6)CC5)ccn4)[nH]c3c2)n1 [Example 16.01.05, cyclobutyl{4-[(2-{[6-(3-methyl-1,2,4-oxadiazol-5-yl)-1H-benzimidazol-2-yl]amino}pyridin-4-yl)methyl]piperazin-1-yl}methanone] | 146

Further compounds by falling IC50, results first:

Row | IC50 [nM] | SMILES
13 | 79 | COc1nccc(-c2ccc3nc(Nc4cc(CN5CCN(C(=O)CC(F)(F)F)CC5)ccn4)[nH]c3c2)n1 [Example 25.01.04, 3,3,3-trifluoro-1-{4-[(2-{[6-(2-methoxypyrimidin-4-yl)-1H-benzimidazol-2-yl]amino}pyridin-4-yl)methyl]piperazin-1-yl}propan-1-one]
14 | 52 | COc1c(-c2ccc3nc(Nc4cc(CN5CCN(C(=O)OC(C)(C)C)CC5)ccn4)[nH]c3c2)ncnc1N(C)C [Example 107.01.01, tert-butyl 4-{[2-({6-[6-(dimethylamino)-5-methoxypyrimidin-4-yl]-1H-benzimidazol-2-yl}amino)pyridin-4-yl]methyl}piperazine-1-carboxylate]
15 | 41.8 | COc1cncnc1-c1ccc2nc(Nc3cc(CN4CCN(S(=O)(=O)N5CC(C)OC(C)C5)CC4)ccn3)[nH]c2c1 (stereo not shown) [Example 35.01.18, N-[4-({4-[(2,6-dimethylmorpholin-4-yl)sulfonyl]piperazin-1-yl}methyl)pyridin-2-yl]-6-(5-methoxypyrimidin-4-yl)-1H-benzimidazol-2-amine]
16 | 19 | O=C(C1CC1)N1CCN(Cc2ccnc(Nc3nc4ccc(-c5ccnc(N6CCOCC6)c5)cc4[nH]3)c2)CC1 [Example 134.03, cyclopropyl(4-{[2-({6-[2-(morpholin-4-yl)pyridin-4-yl]-1H-benzimidazol-2-yl}amino)pyridin-4-yl]methyl}piperazin-1-yl)methanone]
17 | 18.3 | O=C(CC(F)(F)F)N1CCN(Cc2ccnc(Nc3nc4ccc(-c5ncnc(NC6CC6)c5F)cc4[nH]3)c2)CC1 [Example 192.02, 1-(4-{[2-({6-[6-(cyclopropylamino)-5-fluoropyrimidin-4-yl]-1H-benzimidazol-2-yl}amino)pyridin-4-yl]methyl}piperazin-1-yl)-3,3,3-trifluoropropan-1-one]
18 | 18 | COc1cc(-c2ccc3nc(Nc4cc(CN5CCN(C(=O)C6CC6)CC5)ccn4)[nH]c3c2)ncn1 [Example 163.03, cyclopropyl{4-[(2-{[6-(6-methoxypyrimidin-4-yl)-1H-benzimidazol-2-yl]amino}pyridin-4-yl)methyl]piperazin-1-yl}methanone]
19 | 18 | COc1cncnc1-c1ccc2nc(Nc3cc(CN4CCN(C(=O)C5CC5)CC4)ccn3)[nH]c2c1 [Example 35.01.02, cyclopropyl{4-[(2-{[6-(5-methoxypyrimidin-4-yl)-1H-benzimidazol-2-yl]amino}pyridin-4-yl)methyl]piperazin-1-yl}methanone]
20 | 14 | CC(c1ccnc(Nc2nc3ccc(-c4cc(OCC5CC5)ncn4)cc3[nH]2)c1)N1CCN(C(=O)OC(C)(C)C)CC1 (single isomer, unassigned) [Example 85.02, tert-Butyl 4-{(1R or 1S)-1-[2-({6-[6-(cyclopropylmethoxy)pyrimidin-4-yl]-1H-benzimidazol-2-yl}amino)pyridin-4-yl]ethyl}piperazine-1-carboxylate]
21 | 13 | CCc1cc(-c2ccc3nc(Nc4cc(CN5CCN(C(=O)C6CC6)CC5)ccn4)[nH]c3c2)ncn1 [Example 91.03, cyclopropyl{4-[(2-{[6-(6-ethylpyrimidin-4-yl)-1H-benzimidazol-2-yl]amino}pyridin-4-yl)methyl]piperazin-1-yl}methanone]
22 | 7.86 | Cc1cc(-c2ccc3nc(Nc4cc(C(C)N5CCN(C(=O)C6CCC6)CC5)ccn4)[nH]c3c2)ncn1 (racemic) [Example 30.02.02, (rac)-cyclobutyl{4-[1-(2-{[6-(6-methylpyrimidin-4-yl)-1H-benzimidazol-2-yl]amino}pyridin-4-yl)ethyl]piperazin-1-yl}methanone]
23 | 6.62 | Cc1nccc(-c2ccc3nc(Nc4cc(C(C)N5CCN(C(=O)CC(F)(F)F)CC5)ccn4)[nH]c3c2)n1 (single isomer, unassigned) [Example 24.05.01.B, 3,3,3-trifluoro-1-{4-[(1S or 1R)-1-(2-{[6-(2-methylpyrimidin-4-yl)-1H-benzimidazol-2-yl]amino}pyridin-4-yl)ethyl]piperazin-1-yl}propan-1-one]
24 | 5.21 | CC(c1ccnc(Nc2nc3ccc(-c4cnn(C[C@@H]5CC5(Cl)Cl)c4)cc3[nH]2)c1)N1CCN(C(=O)CC(F)(F)F)CC1 (single isomer, unassigned) [Example 170.02, 1-{4-[(1R or 1S)-1-(2-{[6-(1-{[(1RS)-2,2-dichlorocyclopropyl]methyl}-1H-pyrazol-4-yl)-1H-benzimidazol-2-yl]amino}pyridin-4-yl)ethyl]piperazin-1-yl}-3,3,3-trifluoropropan-1-one]
25 | 4.7 | CCNc1cc(-c2ccc3nc(Nc4cc(CN5CCN(C(=O)OC(C)(C)C)CC5)ccn4)[nH]c3c2)ncn1 [Example 149.01, tert-butyl 4-{[2-({6-[6-(ethylamino)pyrimidin-4-yl]-1H-benzimidazol-2-yl}amino)pyridin-4-yl]methyl}piperazine-1-carboxylate]
26 | 1.66 | CC(c1ccnc(Nc2nc3ccc(-c4cnn(CC5CC5)c4)cc3[nH]2)c1)N1CCN(C(=O)C2CC2)CC1 (single isomer, unassigned) [Example 39.02.03, cyclopropyl(4-{(1R or 1S)-1-[2-({6-[1-(cyclopropylmethyl)-1H-pyrazol-4-yl]-1H-benzimidazol-2-yl}amino)pyridin-4-yl]ethyl}piperazin-1-yl)methanone]
27 | 1.4 | CC(C)Nc1cc(-c2ccc3nc(Nc4cc(CN5CCN(C(=O)C6CC6)CC5)ccn4)[nH]c3c2)ncn1 [Example 154.03, cyclopropyl(4-{[2-({6-[6-(propan-2-ylamino)pyrimidin-4-yl]-1H-benzimidazol-2-yl}amino)pyridin-4-yl]methyl}piperazin-1-yl)methanone]
28 | 1 | O=C(C1CC1)N1CCN(Cc2ccnc(Nc3nc4ccc(-c5cc(NC6CC6)ncn5)cc4[nH]3)c2)CC1 [Example 151.03, cyclopropyl(4-{[2-({6-[6-(cyclopropylamino)pyrimidin-4-yl]-1H-benzimidazol-2-yl}amino)pyridin-4-yl]methyl}piperazin-1-yl)methanone]
